Laboratory results: patent US20030083266A1 (priority 2002, published 2003)
One block for each compound: values may come before it.

Key:
[1] = tested on: PC12 cells; test: In vitro intracellular antioxidation: [3H]-thymidine uptake by PC12 cells under 6-hydroxy-dopamine oxidative stress; format: cell-based; details: 0.5 mM 6-hydroxy-dopamine 24 hour
Procedure: One of the main characteristics of the oxidative effects in PC12 cells are mimicked by 6-hydroxy-dopamine which is a false neurotransmitter taken up by the cells. Therefore, 6-hydroxy-dopamine was used as another oxidative agent and tested the protective antioxidant efficiencies of compounds A-D within the cells.
With reference now to FIG. 2. To this end, PC12 cells were subjected to high concentration (0.5 mM) of 6-hydroxy-dopamine (6-HO-DA) for 24 hour, in the presence of 0.3 mM or 0.8 mM of compounds A-D or 1 mM of reduced glutathione (GSH) a natural antioxidant, as shown in the front row of FIG. 2. A similar set of cells was treated with the same concentrations of compounds A-D and of reduced glutathione, yet without 6-hydroxy-dopamine, as shown in the back row of FIG. 2. Due to the high lipophylicity of the antioxidants used, they were first dissolved in dimethyl sulfoxide (DMSO), then in water and were applied to the cells in a final concentration of 3% DMSO. [^3H]-thymidine was added to the cells (1 μCi/100,000 cells) six hours prior to the end of the 24 hour period.
The results presented in FIG. 2 are the mean of triplicate wells taken from three independent cell batches, wherein control represent untreated cells and is defined as 100% [^3H]-thymidine uptake. The effect of DMSO on the cells was tested separately as shown.

[2] = tested on: PC12 cells; test: In vitro extracellular antioxidation: [3H]-thymidine uptake by PC12 cells under dopamine oxidative stress; format: cell-based; details: 0.5 mM dopamine 24 hours
Procedure: Compounds A-D were assayed in vitro for their extracellular antioxidant activities. The assays were carried out with PC12 cells (Offen et al., 1996) subjected to a high dose of dopamine which confers oxidative stress to these cells by forming oxidation products during its oxidation in the growth medium, i.e., extracellularly.
With reference now to FIG. 1. To this end, PC12 cells were subjected to high concentration of dopamine (0.5 mM) for 24 hours in the presence of increasing concentrations (0 mM, 0.03 mM, 0.1 mM, 0.3 mM and 0.9 mM) of the various compounds A-D. [^3H]-thymidine was added to the cells (1 μCi/100,000 cells) six hours before the end of the 24 hours period. Due to the high lipophylicity of compounds A-D, the compounds were first dissolved in dimethyl sulfoxide (DMSO) and then in water and were applied to the cells in a final concentration of 3% DMSO. The effect of 3% DMSO on the cells was tested separately and the values presented in FIG. 1 are after the appropriate corrections.
[^3H]-thymidine uptake was measured in triplicate wells containing cells pretreated with dopamine alone and dopamine with each of compounds A-D at the concentrations as indicated above. The results presented in FIG. 1 show the mean of triplicate wells taken from three independent cell batches, wherein control represent cells treated only with 3% DMSO and is defined as 100% [^3H]-thymidine uptake (not shown).

[3] = tested on: endogenous reduced glutathione (GSH); test: In vivo antioxidation: striatum/serum endogenous GSH after IP injection; set-up: species or system Balb/c mice; details: mice, injected IP, 100-300 mg/kg, three hours post injection
Procedure: With reference now to FIG. 3. To this end, three groups of two months old Balb/c mice containing two animals in each group were injected intraperitonealy (IP) with 100-300 mg/kg body weight of compound A. Blood samples were drawn from the tail three hours post injection and then the animals were sacrificed and either the corpus striatum or the whole brain were removed and analyzed for GSH levels.
GSH levels were determined using the experimental procedures as described hereinbelow and/or the GSH-400 kit (Oxis International, Inc.).
Preparation of brain homogenates: Animals were rapidly killed and exsanguinated to remove excess blood from the brain. The brain of each animal was rinsed in a beaker containing water, lightly blotted to dry and were weighted. The striatums were transferred into a hand-homogenizer tube and each was homogenized using a constant number (e.g., 20) of up and down strokes of the hand-homogenizer pestle. Each of the homogenates was poured into a centrifuge tube and centrifuged for 10,000×g for 5 min. The supernatant was used for GSH determination as follows.
GSH Assay: For each measurement, 200 μl of sample were incubated with 20 μl DTNB [5,5′ dithio bis(2-nitrobenzoic acid)] for 1 hour in 37° C. Final absorbance was measured at 400 nm. Similar results were obtained using the GSH-400 kit. […]

[4] = tested on: GSH; test: Brain GSH levels after IP injection of compound J (HPLC); format: in vivo, C57BL/6J mice; details: mice brain extract after IP injection
[5] = tested on: Neuroblastoma SHSY5Y (NB) cells; test: Protection from oxidative stress in vitro, neutral red survival assay; format: cell-based
Procedure: Protection from oxidative stress in vitro: Neuroblastoma SHSY5Y (NB) cells were maintained in Dulbeco's Modified Eagle's Medium (DMEM), supplemented with 8% FCS and 8% horse serum, penicillin (25 μg/ml), streptomycin (25 μg/ml), 2 mM L-glutamine and 400 μg/ml G418 (Gibco/BRL). For protection experiments cells were subcultured (in 2% serum) to poly-L-lysine-coated 96-well microtiter plates (Nunc), 100 μl of 5×10^5 cells/ml, CEA was applied to the cells in each well and 4 hours later DA, L-dopa (levodopa), 6-OHDA and MPP+ were added for 24 hours.
Survival was assayed by adding neutral red (0.34%, Sigma) to cells in DCCM-1 medium (0.1 ml/well, Bet-Haemek) and incubation for 2 hour at 37° C. The cells were then washed with cold PBS containing 10 mM MgCl2 and the dye was dissolved in 50% ethanol in 50% Somerson buffer (70 mM sodium citrate, 30 mM citric acid, 0.1 N HCl). ELISA reader (590 nm) was used to measure the remaining color intensity.

[6] = Crossing the blood-brain-barrier: compound level in brain extracts by HPLC after IP injection; format: in vivo, C57BL/6J mice; details: mice
Procedure: Detection of compound j (referred to in this Example also as CEA) was established using high performance liquid chromatography (HPLC). To this end, CEA was treated with a fluorescent thiolyte reagent (monobromobimane reagent) and analyzed on an HPLC column.
Crossing the blood-brain-barrier: In vivo experiments were carried out on C57BL/6J mice (15 grams) injected IP with compound J. After incubation (15 min, 60 min or 4 hours) the mice were anesthetized with ether and blood samples were drawn. Then mice underwent perfusion with 50 ml of saline, injected into the right ventricle. The levels of […] in the brain and in the plasma were detected by selective fluorescent labeling using high performance liquid chromatography (HPLC).
Increasing amounts of compound J were injected IP and 15 min later, mice were perfused with saline and compound J levels in the brain extracts were determined by HPLC chromatography (FIG. 5b), as compared to a control, pure, uninjected compound J (FIG. 5a).

SMILES: CCOC(=O)CNC(=O)C(CS)NC(=O)CCC(N)C(=O)O (stereo not shown) [compound D, Glutathione ethyl ester]
Increase of [3H]-thymidine uptake of 6-hydroxy-dopamine treated cells ([1]; compound at 0.3 mM): Ca. 3.5 | Increase of [3H]-thymidine uptake of 6-hydroxy-dopamine treated cells ([1]; compound at 0.8 mM): Ca. 3.5 | Increase of [3H]-thymidine uptake ([2]; compound at 0.03 mM): Ca. 2.5 | Increase of [3H]-thymidine uptake ([2]; compound at 0.1 mM): Ca. 2.5

SMILES: CCOC(=O)C(NC(C)=O)C(C)(C)S (stereo not shown) [compound B, N-acetyl-penicillamine ethyl ester]
Increase of [3H]-thymidine uptake ([2]; compound at 0.03 mM): Ca. 1.5

Crossing of the blood brain barrier [3]: crosses the blood brain barrier
SMILES: CCOC(=O)[C@H](CS)NC(C)=O [compound A, N-acetyl cysteine ethyl ester]
Level of endogenous GSH at the striatum [3]: increases the level of endogenous GSH

SMILES: CC(=O)N[C@H](C(=O)O)C(C)(C)S [compound C, N-acetyl-β,β-dimethyl cysteine]
Increase of [3H]-thymidine uptake of 6-hydroxy-dopamine treated cells ([1]; compound at 0.3 mM): Ca. 1.5

Compound level in the brain ([6]; IP injection 0.25-4 mg, 15 min, brain extracts): concentration-dependent increase | Crossing of the BBB ([6]; IP injection, fluorescent labeling and HPLC): crosses the BBB
SMILES: CC(=O)NC(CS)C(N)=O (stereo not shown) [compound J]
Increase of GSH levels over untreated animals [4]: up to 46% | Cell survival ([5]; 0.3 mM compound, neutral red assays): up to 95% | Protection of cells against toxicity (>50%) of DA, L-dopa, 6-OHDA and MPP+ ([5]; compound at 0.1 mM, DA, L-dopa, 6-OHDA 0.1-0.25 mM, MPP+ 0.5-2 mM, 24 hours): protect the cells
